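Values below derive from 48-hour exposures of cells grown in 96-well plates, with endpoints linearly interpolated between the two concentrations bracketing the appropriate inhibition level. The concentration for 50% growth inhibition is given as GI50.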 Activity calls are given as the source filed them. Rule as the data show it: active = GI50 up to about 1.1 µM and inactive = higher.
Legend:
Assay in all cases: NCI-60 cell line screen, 48 h
NCI-H522 = tested on: NCI-H522
SNB-19 = tested on: SNB-19
SF-295 = tested on: SF-295
UACC-62 = tested on: UACC-62
OVCAR-4 = tested on: OVCAR-4
COLO 205 = tested on: COLO 205
SK-MEL-28 = tested on: SK-MEL-28
BT-549 = tested on: BT-549
HOP-92 = tested on: HOP-92
UACC-257 = tested on: UACC-257
NCI-H23 = tested on: NCI-H23
SNB-75 = tested on: SNB-75
TK-10 = tested on: TK-10
HT-29 = tested on: HT-29
RPMI-8226 = tested on: RPMI-8226
CAKI-1 = tested on: CAKI-1
HOP-62 = tested on: HOP-62
MDA-MB-231 = tested on: MDA-MB-231
Malme-3M = tested on: Malme-3M
MDA-N = tested on: MDA-N

Measured: GI50

CCCCC(=C=C(C)CO)C1CCCN1C(=O)OC(C)(C)C (configuration not stated)
inactive: NCI-H522 14.5 µM | SNB-19 23.3 µM | SF-295 16.3 µM | UACC-62 13.6 µM | OVCAR-4 17.3 µM | COLO 205 15.4 µM | SK-MEL-28 18.4 µM | BT-549 16.1 µM | HOP-92 12.7 µM | UACC-257 16 µM | NCI-H23 19 µM | SNB-75 22.5 µM | TK-10 19.4 µM | HT-29 17.5 µM | RPMI-8226 13.9 µM | CAKI-1 21.8 µM | HOP-62 20 µM | MDA-MB-231 17 µM | Malme-3M 15 µM | MDA-N 17.6 µM

O=C1C(c2c(O)[nH]c3ccccc23)=Nc2ccc(Br)cc21
inactive: NCI-H522 28.5 µM | SNB-19 22 µM | SF-295 22.4 µM | UACC-62 17.6 µM | OVCAR-4 14.9 µM | COLO 205 > 100 µM | SK-MEL-28 > 100 µM | BT-549 28.2 µM | HOP-92 17.6 µM | UACC-257 58.6 µM | NCI-H23 51.8 µM | SNB-75 14.6 µM | TK-10 23 µM | HT-29 23.9 µM | RPMI-8226 75.7 µM | CAKI-1 56.2 µM | HOP-62 21.3 µM | MDA-MB-231 23.3 µM | Malme-3M > 100 µM | MDA-N 99.1 µM

O=[N+]([O-])c1cc2c(c([N+](=O)[O-])c1)NCc1ccccc1O2
inactive: NCI-H522 > 100 µM | SF-295 > 100 µM | UACC-62 > 100 µM | OVCAR-4 70.5 µM | COLO 205 > 100 µM | SK-MEL-28 > 100 µM | BT-549 > 100 µM | HOP-92 > 100 µM | UACC-257 > 100 µM | NCI-H23 > 100 µM | SNB-75 12.9 µM | TK-10 > 100 µM | HT-29 > 100 µM | RPMI-8226 > 100 µM | CAKI-1 14.9 µM | HOP-62 30.8 µM | MDA-MB-231 > 100 µM | Malme-3M > 100 µM | MDA-N > 100 µM

Cc1ccc(N2C(=O)C(=O)N(/N=C3\C(=O)Nc4ccccc43)C2=S)cc1
inactive: NCI-H522 63.2 µM | SNB-19 > 100 µM | SF-295 54.1 µM | UACC-62 92.9 µM | COLO 205 42 µM | SK-MEL-28 > 100 µM | BT-549 85.3 µM | HOP-92 > 100 µM | UACC-257 > 100 µM | NCI-H23 86.7 µM | SNB-75 > 100 µM | TK-10 > 100 µM | HT-29 58.6 µM | RPMI-8226 40.6 µM | CAKI-1 92.5 µM | HOP-62 > 100 µM | MDA-MB-231 > 100 µM | Malme-3M > 100 µM | MDA-N 59.7 µM

CCOC(=O)/C=C1\c2ccccc2C(=O)N1CC(=O)OCC
inactive: NCI-H522 > 100 µM | SNB-19 > 100 µM | SF-295 > 100 µM | UACC-62 > 100 µM | OVCAR-4 > 100 µM | COLO 205 > 100 µM | SK-MEL-28 > 100 µM | BT-549 > 100 µM | HOP-92 39.9 µM | UACC-257 > 100 µM | NCI-H23 > 100 µM | SNB-75 77.1 µM | TK-10 > 100 µM | RPMI-8226 > 100 µM | CAKI-1 > 100 µM | HOP-62 > 100 µM | MDA-MB-231 > 100 µM | Malme-3M > 100 µM | MDA-N > 100 µM

COC(=O)C1=C(O)C(C(=O)OC)[C@]2(O)[C@H](C(=O)OC)[C@H]1C[C@@H](c1ccc(Cl)cc1Cl)[C@H]2C(=O)OC (some centres not stated)
inactive: SNB-19 6.98 µM | SF-295 7.46 µM | UACC-62 9.46 µM | OVCAR-4 6.55 µM | COLO 205 8.77 µM | SK-MEL-28 12.4 µM | BT-549 6.31 µM | HOP-92 7.96 µM | UACC-257 10 µM | NCI-H23 4.34 µM | SNB-75 8.61 µM | TK-10 12.6 µM | HT-29 13.2 µM | RPMI-8226 1.75 µM | CAKI-1 9.68 µM | HOP-62 5.5 µM | MDA-MB-231 19.5 µM | Malme-3M 6.95 µM | MDA-N 2.74 µM

C/C(=N\NC(=O)c1ccccc1O)c1cccc(/C(C)=N/NC(=O)c2ccccc2O)n1
inactive: SF-295 12.5 µM | UACC-62 2.58 µM | BT-549 > 39.4 µM | HOP-92 10.9 µM | SNB-75 12.1 µM | TK-10 18.6 µM | HT-29 8.61 µM | RPMI-8226 14.7 µM | HOP-62 5.05 µM | MDA-MB-231 19.4 µM | Malme-3M 10.6 µM | MDA-N > 57 µM

CC(=O)[C@@]1(C)CC2(CCN(C)CC2)OC1C (some centres not stated)
inactive: NCI-H522 > 100 µM | SNB-19 > 100 µM | SF-295 > 100 µM | OVCAR-4 > 100 µM | COLO 205 > 100 µM | SK-MEL-28 > 100 µM | BT-549 > 100 µM | HOP-92 > 100 µM | UACC-257 > 100 µM | NCI-H23 > 100 µM | SNB-75 > 100 µM | TK-10 > 100 µM | HT-29 > 100 µM | RPMI-8226 > 100 µM | CAKI-1 > 100 µM | HOP-62 > 100 µM | MDA-MB-231 > 100 µM | Malme-3M > 100 µM | MDA-N > 100 µM

Cc1ccc(/C=C2\Cc3cc(C)c(C)cc3C2=O)c(C(=O)O)c1
inactive: NCI-H522 22.1 µM | SNB-19 30.9 µM | SF-295 33.5 µM | UACC-62 61.7 µM | SK-MEL-28 52.5 µM | BT-549 16.3 µM | UACC-257 24.5 µM | NCI-H23 > 10 µM | SNB-75 30.3 µM | TK-10 > 100 µM | HT-29 33.3 µM | RPMI-8226 40.4 µM | CAKI-1 45.8 µM | HOP-62 33.7 µM | MDA-MB-231 28.2 µM | Malme-3M 42.1 µM | MDA-N 29.6 µM

Cc1nc2sccn2c1/C=C1/C(=O)Nc2cccc(Cl)c21
inactive: NCI-H522 45.8 µM | SNB-19 > 100 µM | SF-295 51.6 µM | UACC-62 > 100 µM | COLO 205 71.4 µM | SK-MEL-28 > 100 µM | BT-549 > 100 µM | HOP-92 > 100 µM | UACC-257 > 100 µM | NCI-H23 > 100 µM | SNB-75 > 100 µM | TK-10 > 100 µM | HT-29 56.2 µM | RPMI-8226 > 100 µM | CAKI-1 > 100 µM | HOP-62 > 100 µM | MDA-MB-231 50.4 µM | Malme-3M > 100 µM | MDA-N 12.6 µM

COC(=O)C1Cc2c([nH]c3ccccc23)-c2[nH]c3ccccc3c2CC(NC(C)=O)C(=O)NCC(=O)NCC(=O)N1 (configuration not stated)
inactive: NCI-H522 > 100 µM | SNB-19 > 100 µM | SF-295 > 100 µM | UACC-62 > 100 µM | COLO 205 > 100 µM | SK-MEL-28 > 100 µM | BT-549 > 100 µM | HOP-92 > 100 µM | UACC-257 > 100 µM | NCI-H23 > 100 µM | SNB-75 > 100 µM | TK-10 > 100 µM | HT-29 > 100 µM | RPMI-8226 > 100 µM | CAKI-1 > 100 µM | HOP-62 > 100 µM | MDA-MB-231 > 100 µM | Malme-3M > 100 µM | MDA-N > 100 µM

From ChEMBL document CHEMBL1201862, “PubChem BioAssay data set” (2004)
